Data from patent US9237747B2, “Herbicidal compositions comprising 4-amino-3-chloro-5-fluoro-6-(4-chloro-2-fluoro-3-methoxyphenyl) pyridine-2-carboxylic acid or a derivative thereof and insecticides” (priority 2013, dated 2016).
Where two headings read alike, the source gives them in different places.

Tests used:
[1] = system: ECHCG; assay: In-water applied weed control, transplanted paddy rice (greenhouse); type: in vivo, Echinochloa crus-galli; conditions: 8 g ae/ha alone
Description: Weed seeds or nutlets of the desired test plant species were planted in puddled soil (mud) prepared by mixing a shredded, non-sterilized mineral soil (50.5 percent silt, 25.5 percent clay, and 24 percent sand, with a pH of about 7.6 and an organic matter content of about 2.9 percent) and water at a 1:1 volumetric ratio. The prepared mud was dispensed in 365 mL aliquots into 16-ounce (oz.) non-perforated plastic pots with a surface area of 86.59 square centimeters (cm^2) leaving a headspace of 3 centimeters (cm) in each pot. Rice seeds were planted in Sun Gro MetroMix® 306 planting mixture, which typically has a pH of 6.0 to 6.8 and an organic matter content of about 30 percent, in plastic plug trays. Seedlings at the second or third leaf stage of growth were transplanted into 860 mL of mud contained in 32-oz. non-perforated plastic pots with a surface area of 86.59 cm^2 4 days prior to herbicide application. The paddy was created by filling the headspace of the pots with 2.5 to 3 cm of water. When required to ensure good germination and healthy plants, a fungicide treatment and/or other chemical or physical treatment was applied. The plants were grown for 4-22 days in a greenhouse with an approximate 14 h photoperiod which was maintained at about 29° C. during the day and about 26° C. during the night. Nutrients were added as Osmocote® (17:6:10, N:P:K+minor nutrients) at 2 grams (g) per 16-oz. pot and 4 g per 32-oz. pot. Water was added on a regular basis to maintain the paddy flood, and supplemental lighting was provided with overhead metal halide 1000-Watt lamps as necessary. The plants were employed for testing when they reached the first through fourth true leaf stage. […]
Treatment requirements for each compound or herbicidal component were calculated based upon the rates being tested, the concentration of active ingredient or acid equivalent in the formulation, an application volume of 2 mL per component per pot, and an application area of 86.59 cm^2 per pot.
For formulated compounds, a measured amount was placed in an individual 100 or 200 mL glass vial and was dissolved in a volume of 1.25% (v/v) AgriDex® crop oil concentrate to obtain application solutions. […]
The treated plants and control plants were placed in a greenhouse as described above and water was added as needed to maintain a paddy flood. After approximately 3 weeks the condition of the test plants as compared with that of the untreated plants was determined visually and scored on a scale of 0 to 100 percent where 0 corresponds to no injury or growth inhibition and 100 corresponds to complete kill. […]

[2] = system: CYPES; type: in vivo, Cyperus esculentus
Description: Seeds or nutlets of the desired test plant species were planted in a soil matrix prepared by mixing a loam or sandy loam soil (e.g., 28.6 percent silt, 18.8 percent clay, and 52.6 percent sand, with a pH of about 5.8 and an organic matter content of about 1.8 percent) and calcareous grit in an 80 to 20 ratio. The soil matrix was contained in plastic pots with a volume of 1 quart and a surface area of 83.6 square centimeters (cm^2). […] The plants were grown for 8-22 days in a greenhouse with an approximate 14 hour (h) photoperiod which was maintained at about 29° C. during the day and 26° C. during the night. Nutrients (Peters Excel® 15-5-15 5-Ca 2-Mg and iron chelate) were applied in the irrigation solution as needed and water was added on a regular basis. Supplemental lighting was provided with overhead metal halide 1000-Watt lamps as necessary. The plants were employed for testing when they reached the first through fourth true leaf stage.
Treatments consisted of the acid or esters of 4-amino-3-chloro-6-(4-chloro-2-fluoro-3-methoxyphenyl)-5-fluoropyridine-2-carboxylic acid (Compound A), each formulated as an SC (suspension concentrate), and various insecticidal components alone and in combination. Forms of compound A were applied on an acid equivalent basis.
For treatments comprised of formulated compounds, measured amounts of compounds were placed individually in 25 mL glass vials and diluted in a volume of 1.25% volume per volume (v/v) Agri-Dex® crop oil concentrate to obtain 12× stock solutions. […] Application solutions were prepared by adding an appropriate amount of each stock solution (e.g., 1 mL) and diluted to the appropriate final concentrations with the addition of […] of an aqueous mixture of 1.25% (v/v) crop oil concentrate so that the final spray solutions contained 1.25+/−0.05% (v/v) crop oil concentrate.
As required, additional water and/or 97:3 v/v acetone/DMSO was added to individual application solutions so that the final acetone and DMSO concentrations of the application solutions being compared were 8.1% and 0.25%, respectively.
All stock solutions and applications solutions were visually inspected for compound compatibility prior to application. Spray solutions were applied to the plant material with an overhead Mandel track sprayer equipped with 8002E nozzles calibrated to deliver 187 L/ha over an application area of 0.503 square meters (m^2) at a spray height of 18 to 20 inches (46 to 50 cm) above average plant canopy height. Control plants were sprayed in the same manner with the solvent blank.
The treated plants and control plants were placed in a greenhouse as described above and watered by sub-irrigation to prevent wash-off of the test compounds. After approximately 3 weeks, the condition of the test plants as compared to that of the untreated plants was determined visually and scored on a scale of 0 to 100 percent where 0 corresponds to no injury or growth inhibition and 100 corresponds to complete kill.
Colby's equation was used to determine the herbicidal effects expected from the mixtures (Colby, S. R. Calculation of the synergistic and antagonistic response of herbicide combinations. Weeds 1967, 15, 20-22.).
The following equation was used to calculate the expected activity of mixtures containing two active ingredients, A and B: Expected=A+B−(A×B/100)

For `COc1c(Cl)ccc(-c2nc(C(=O)OCc3ccccc3)c(Cl)c(N)c2F)c1F` [Compound A Benzyl Ester], the “Visual Weed Control (%) - 21 DAA ECHCG Obs” value [1] was 40%, the “Visual Weed Control (%) - 20 DAA CYPES Obs” value ([2]; 8 g ae/ha alone) was 25% and the “Visual Weed Control (%) - 22 DAA CYPES Obs” value ([2]; 8 g ae/ha alone) was 70%. For the same compound, the “Visual Weed Control (%) - 20 DAA CYPES Obs” value ([2]; 16 g ae/ha alone) was 40%, the “Visual Weed Control (%) - 22 DAA CYPES Obs” value ([2]; 16 g ae/ha alone) was 95% and the “Visual Weed Control (%) - 22 DAA CYPES Obs” value ([2]; 22 DAA, 8 g ae/ha alone) was 70%. The “Visual Weed Control (%) - 20 DAA CYPES Obs” value ([2]; 32 g ae/ha alone) was 73%.
